Broadly, the Ki is the dissociation constant of the complex between target and ligand, obtained from inhibition or displacement.

The text below walks through data of US20240294543A1, “CYCLOHEPTA-THIENO-DIAZEPINE DERIVATIVES AS GABA A GAMMA1 PAM” (Hoffmann-La Roche Inc., priority 2021, published 2024).

In assay [1] the target is human GABAA α2β2γ1 receptor (Homo sapiens (Human), UniProt P47869+Q8N1C3). Put plainly: Radioligand binding assay, competition for [3H]RO7239181, γ1-containing GABAA subtypes. The settings on record: Ki h-GABAA α2β2γ1, membranes of HEK293F cells, [3H]RO7239181 20-30 nM.
The target in assay [2] is human GABAA α5β2γ1 receptor (Homo sapiens (Human), UniProt P31644+Q8N1C3). The assay is described as above.
In assay [3] the target is human GABAA α1β3γ2 receptor (Homo sapiens (Human), UniProt P14867+P18507). Nature of the assay: Radioligand binding assay, competition for [3H]Flumazenil, γ2-containing GABAA subtypes. The settings on record: for γ2/γ1 Selectivity Ratio: Ki α1β3γ2 (nM)/Ki α2β2γ1 (nM); for LogSel: Log[Ki α1β3γ2 (nM)/Ki α2β2γ1 (nM)]. The procedure, abridged:
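Competition against [3H]Flumazenil binding in HEK293F cells transiently expressing human α1β3γ2 receptors, pellets resuspended in mannitol buffer pH 7,2-7,4. Incubated to equilibrium 1 hour at 4° C, filtered and washed with ice-cold 50 mM Tris pH 7.5, bound radioactivity by liquid scintillation counting. Ki values are means of two determinations.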

[4] abbreviates: HEK293F cells, [3H]Flumazenil 1 nM, Table 1, read-out: Ki h-GABAA α1β3γ2.

Read-outs that look alike come from different tables or passages of the source.

Consider `Cc1nnc2n1-c1sc3c(c1C(c1c(F)cccc1F)=N[C@H]2C)CC[C@@H](F)CO3` [Example 56, (7S,14R)-9-(2,6-difluorophenyl)-14-fluoro-3,7-dimethyl-16-oxa-18-thia-2,4,5,8-tetrazatetracyclo[8.8.0.02,6.011,17]octadeca-1(10),3,5,8,11(17)-pentaene], for which the Ki was 0.0394 µM in assay [1] (Table 1), 0.0394 µM in assay [1] (Table 2), 0.0069 µM in assay [2] and 11.5 µM in assay [3]. The “γ2/γ1 Selectivity Ratio” value in assay [3] (Table 1) is recorded as 290.8. In assay [3] (Table 1), this compound had a LogSel of 2.46.
In the case of `Cc1nc2n(n1)-c1sc3c(c1C(c1c(F)cccc1F)=N[C@H]2C)COCCC3` [Example 57, (7S)-9-(2,6-difluorophenyl)-4,7-dimethyl-13-oxa-18-thia-2,3,5,8-tetrazatetracyclo[8.8.0.02,6.011,17]octadeca-1(10),3,5,8,11(17)-pentaene], the Ki in assay [1] (Table 1) came out at 0.0073 µM; in assay [1] (Table 2), 0.0073 µM; in assay [2] it was 0.00153 µM; in assay [3] it was 4.52 µM. Also, the “γ2/γ1 Selectivity Ratio” value in assay [3] (Table 1) came to 615.2. Also, the LogSel in assay [3] (Table 1) is 2.79.
As for `Cc1nnc2n1-c1sc3c(c1C(c1c(F)cccc1Cl)=N[C@H]2C)COCCC3` [Example 61, (7S)-9-(2-chloro-6-fluoro-phenyl)-3,7-dimethyl-13-oxa-18-thia-2,4,5,8-tetrazatetracyclo[8.8.0.02,6.011,17]octadeca-1(10),3,5,8,11(17)-pentaene], the Ki came out at 0.0206 µM in assay [1] (Table 1), 0.0206 µM in assay [1] (Table 2), 0.00498 µM in assay [2] and 2.52 µM in assay [3]. Moreover, the “γ2/γ1 Selectivity Ratio” value in assay [3] (Table 1) is 122.4. For the same compound, the LogSel in assay [3] (Table 1) stood at 2.09.
`C[C@@H]1N=C(c2c(F)cccc2F)c2c(sc3c2COCCC3)-n2nc(C(=O)NCC3(O)CC3)nc21` [Example 62, (7S)-9-(2,6-difluorophenyl)-N-[(1-hydroxycyclopropyl)methyl]-7-methyl-13-oxa-18-thia-2,3,5,8-tetrazatetracyclo[8.8.0.02,6.011,17]octadeca-1(10),3,5,8,11(17)-pentaene-4-carboxamide]: the Ki in assay [1] (Table 1) is 0.0246 µM; in assay [1] (Table 2), 0.0245 µM; in assay [2], 0.0059 µM; in assay [3] (setting [4]), 4.92 µM. Moreover, the “γ2/γ1 Selectivity Ratio” value in assay [3] (Table 1) stood at 200.3. Also, the LogSel in assay [3] (Table 1) is 2.30.
Regarding `C[C@@H]1N=C(c2c(F)cccc2F)c2c(sc3c2COCCC3)-n2nc(C(=O)N[C@H]3C[C@H](O)C3)nc21` [Example 63, (7S)-9-(2,6-difluorophenyl)-N-(trans-3-hydroxycyclobutyl)-7-methyl-13-oxa-18-thia-2,3,5,8-tetrazatetracyclo[8.8.0.02,6.011,17]octadeca-1(10),3,5,8,11(17)-pentaene-4-carboxamide], the Ki in assay [1] (Table 1) was 0.0459 µM; in assay [1] (Table 2) it was 0.0459 µM; in assay [2], 0.0081 µM; in assay [3] (setting [4]) it was 4.43 µM. Besides, the “γ2/γ1 Selectivity Ratio” value in assay [3] (Table 1) is 96.5. For the same compound, in assay [3] (Table 1), the LogSel came to 1.98.
In the case of `C[C@@H]1N=C(c2c(F)cccc2F)c2c(sc3c2COCCC3)-n2nc(C(=O)N[C@H]3C[C@@H](O)C3)nc21` [Example 64, (7S)-9-(2,6-difluorophenyl)-N-(cis-3-hydroxycyclobutyl)-7-methyl-13-oxa-18-thia-2,3,5,8-tetrazatetracyclo[8.8.0.02,6.011,17]octadeca-1(10),3,5,8,11(17)-pentaene-4-carboxamide], the Ki in assay [1] (Table 1) came out at 0.0562 µM; in assay [1] (Table 2), 0.0562 µM; in assay [2] it was 0.0065 µM; in assay [3] (setting [4]), 7.87 µM. Moreover, the “γ2/γ1 Selectivity Ratio” value in assay [3] (Table 1) stood at 139.9. This compound had a LogSel in assay [3] (Table 1) of 2.15.
Consider `C[C@@H]1N=C(c2c(F)cccc2F)c2c(sc3c2COCCO3)-n2cc(C(=O)NCC3(O)CC3)nc21` [Example 65, (7S)-9-(2,6-difluorophenyl)-N-[(1-hydroxycyclopropyl)methyl]-7-methyl-13,16-dioxa-18-thia-2,5,8-triazatetracyclo[8.8.0.02,6.011,17]octadeca-1(10),3,5,8,11(17)-pentaene-4-carboxamide], for which the Ki in assay [1] (Table 1) was 0.0231 µM; in assay [1] (Table 2) it was 0.0231 µM; in assay [2] it was 0.00169 µM; in assay [3] (setting [4]), 1.24 µM. The “γ2/γ1 Selectivity Ratio” value in assay [3] (Table 1) was found to be 53.8. The compound also showed a LogSel in assay [3] (Table 1) of 1.73.
Consider `C[C@@H]1N=C(c2c(F)cccc2F)c2c(sc3c2COCCC3)-n2cc(C(=O)NCCO)nc21` [Example 66, (7S)-9-(2,6-difluorophenyl)-N-(2-hydroxyethyl)-7-methyl-13-oxa-18-thia-2,5,8-triazatetracyclo[8.8.0.02,6.011,17]octadeca-1(10),3,5,8,11(17)-pentaene-4-carboxamide], for which the Ki in assay [1] (Table 1) was determined as 0.0147 µM; in assay [1] (Table 2) it was 0.0147 µM; in assay [2] it was 0.00294 µM; in assay [3] (setting [4]) it was 2.51 µM. Also, in assay [3] (Table 1), the “γ2/γ1 Selectivity Ratio” value was 170.6. The LogSel in assay [3] (Table 1) amounted to 2.23.
Take `C[C@@H]1N=C(c2c(F)cccc2F)c2c(sc3c2COCCC3)-n2cc(C(=O)NCC(C)(C)O)nc21` [Example 67, (7S)-9-(2,6-difluorophenyl)-N-(2-hydroxy-2-methyl-propyl)-7-methyl-13-oxa-18-thia-2,5,8-triazatetracyclo[8.8.0.02,6.011,17]octadeca-1(10),3,5,8,11(17)-pentaene-4-carboxamide]: the Ki worked out at 0.0213 µM in assay [1] (Table 1), 0.0213 µM in assay [1] (Table 2), 0.0074 µM in assay [2] and 1.8 µM in assay [3] (setting [4]). The “γ2/γ1 Selectivity Ratio” value in assay [3] (Table 1) is reported as 84.5. In assay [3] (Table 1), this compound displayed a LogSel of 1.93.
Consider `C[C@@H]1N=C(c2c(F)cccc2F)c2c(sc3c2COCCC3)-n2cc(C(=O)NCC3(O)CC3)nc21` [Example 68, (7S)-9-(2,6-difluorophenyl)-N-[(1-hydroxycyclopropyl)methyl]-7-methyl-13-oxa-18-thia-2,5,8-triazatetracyclo[8.8.0.02,6.011,17]octadeca-1(10),3,5,8,11(17)-pentaene-4-carboxamide], for which the Ki in assay [1] (Table 1) was 0.0106 µM; in assay [1] (Table 2), 0.0106 µM; in assay [2], 0.00295 µM; in assay [3] (setting [4]), 1.98 µM. Moreover, the “γ2/γ1 Selectivity Ratio” value in assay [3] (Table 1) worked out at 187.5. This compound also yielded a LogSel in assay [3] (Table 1) of 2.27.
As to `C[C@@H]1N=C(c2c(F)cccc2F)c2c(sc3c2COCCC3)-n2nc(C(=O)NC[C@@](C)(O)C(F)(F)F)nc21` [Example 70, (7S)-9-(2,6-difluorophenyl)-7-methyl-N-[(2R)-3,3,3-trifluoro-2-hydroxy-2-methyl-propyl]-13-oxa-18-thia-2,3,5,8-tetrazatetracyclo[8.8.0.02,6.011,17]octadeca-1(10),3,5,8,11(17)-pentaene-4-carboxamide], the inhibitory constant (Ki) in assay [1] (Table 1) amounted to 0.0499 µM; in assay [1] (Table 2), 0.0499 µM; in assay [2], 0.0058 µM; in assay [3] (setting [4]), 3.55 µM. The “γ2/γ1 Selectivity Ratio” value in assay [3] (Table 1) is reported as 71.1. Also, the LogSel in assay [3] (Table 1) came to 1.85.
